Data reported in ChEMBL document CHEMBL4138153, “Synthesis, monoamine oxidase inhibition activity and molecular docking studies of novel 4-hydroxy-N'-[benzylidene or 1-phenylethylidene]-2-H/methyl/benzyl-1,2-benzothiazine-3-carbohydrazide 1,1-dioxides” (Eur J Med Chem, 2018).

Key:
Rattus norvegicus = species on record: Rattus norvegicus; test: Selectivity index, ratio of IC50 for MAO-A in rat liver mitochondria to IC50 for MAO-B in rat liver mitochondria
[1] = molecular target: T1, Amine oxidase [flavin-containing] B (Rattus norvegicus, UniProt P19643); test: Inhibition of MAO-B in rat liver mitochondria using p-tyramine as substrate preincubated for 10 mins followed by substrate addition measured after 30 mins in presence of MAO-A inhibitor clorgyline by Amplex red dye-based fluorescence assay
T1 sequence (P19643 whole entry): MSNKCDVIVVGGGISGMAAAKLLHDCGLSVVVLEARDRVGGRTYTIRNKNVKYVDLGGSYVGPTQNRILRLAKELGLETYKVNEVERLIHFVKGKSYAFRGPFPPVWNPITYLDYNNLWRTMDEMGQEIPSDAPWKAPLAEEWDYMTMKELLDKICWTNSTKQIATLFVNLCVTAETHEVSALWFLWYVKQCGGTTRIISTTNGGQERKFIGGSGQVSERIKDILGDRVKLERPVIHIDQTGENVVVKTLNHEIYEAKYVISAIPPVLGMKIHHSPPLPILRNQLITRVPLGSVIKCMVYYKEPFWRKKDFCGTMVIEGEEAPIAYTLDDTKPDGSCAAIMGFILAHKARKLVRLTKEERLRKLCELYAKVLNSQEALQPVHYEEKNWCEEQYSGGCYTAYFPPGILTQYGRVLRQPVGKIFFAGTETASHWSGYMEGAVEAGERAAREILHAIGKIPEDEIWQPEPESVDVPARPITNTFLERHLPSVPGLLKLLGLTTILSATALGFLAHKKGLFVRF

[2] = molecular target: T2, Amine oxidase [flavin-containing] A (Rattus norvegicus, UniProt P21396); test: Inhibition of MAO-A in rat liver mitochondria using p-tyramine as substrate preincubated for 10 mins followed by substrate addition measured after 30 mins in presence of MAO-B inhibitor deprenyl by Amplex red dye-based fluorescence assay
T2 sequence (P21396 whole entry): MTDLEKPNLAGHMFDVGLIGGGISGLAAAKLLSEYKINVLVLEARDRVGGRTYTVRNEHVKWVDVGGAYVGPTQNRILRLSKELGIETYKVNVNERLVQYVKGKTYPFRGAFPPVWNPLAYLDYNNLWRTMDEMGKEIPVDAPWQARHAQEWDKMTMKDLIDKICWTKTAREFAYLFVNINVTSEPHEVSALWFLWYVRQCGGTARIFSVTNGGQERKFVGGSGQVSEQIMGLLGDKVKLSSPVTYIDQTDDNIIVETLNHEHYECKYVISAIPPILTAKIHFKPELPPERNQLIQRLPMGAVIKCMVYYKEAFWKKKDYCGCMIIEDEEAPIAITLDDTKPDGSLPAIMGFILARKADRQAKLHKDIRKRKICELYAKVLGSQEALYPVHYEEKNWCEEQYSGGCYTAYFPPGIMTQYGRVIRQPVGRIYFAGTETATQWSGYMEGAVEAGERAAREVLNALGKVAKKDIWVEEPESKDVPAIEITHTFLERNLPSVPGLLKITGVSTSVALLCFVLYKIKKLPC

[3] = molecular target: T1, Amine oxidase [flavin-containing] B; test: Competitive inhibition of MAO-B in rat liver mitochondria using p-tyramine as substrate up to 0.3 uM preincubated for 10 mins followed by substrate addition measured after 30 mins by Lineweaver-burk plot analysis; settings: 0.5 h
[4] = molecular target: T2, Amine oxidase [flavin-containing] A; test: Competitive inhibition of MAO-A in rat liver mitochondria using p-tyramine as substrate up to 0.15 uM preincubated for 10 mins followed by substrate addition measured after 30 mins by Lineweaver-burk plot analysis; settings: 0.5 h

SMILES	Ratio IC50 (Rattus norvegicus)	IC50 [1] [µM]	IC50 [2] [µM]	inhibition (INH) [3]	inhibition (INH) [4]
C/C(=N\NC(=O)C1=C(O)c2ccccc2S(=O)(=O)N1)c1ccc(Cl)cc1	> 9.17	10.9	≥ 100	–	–
COc1ccc(/C=N/NC(=O)C2=C(O)c3ccccc3S(=O)(=O)N2)cc1	3.02	1.91	5.76	–	–
O=C(N/N=C/c1ccccc1)C1=C(O)c2ccccc2S(=O)(=O)N1Cc1ccccc1	> 10.5	9.52	≥ 100	–	–
COC(=O)CN1C(=O)c2ccccc2S1(=O)=O	4.11	0.27	1.11	–	–
COC(=O)C1=C(O)c2ccccc2S(=O)(=O)N1C	1.15	23.1	26.6	–	–
CN1C(C(=O)N/N=C/c2ccccc2)=C(O)c2ccccc2S1(=O)=O	11.9	1.76	21.1	–	–
CC(C)c1ccc(/C=N/NC(=O)C2=C(O)c3ccccc3S(=O)(=O)N2C)cc1	0.02	18.2	0.44	–	–
C/C(=N\NC(=O)C1=C(O)c2ccccc2S(=O)(=O)N1Cc1ccccc1)c1ccc(Cl)cc1	0.03	10.1	0.33	–	–
CCOc1ccc(/C=N/NC(=O)C2=C(O)c3ccccc3S(=O)(=O)N2Cc2ccccc2)cc1	4.89	5.78	28.3	–	–
CC(C)c1ccc(/C=N/NC(=O)C2=C(O)c3ccccc3S(=O)(=O)N2Cc2ccccc2)cc1	0.13	36.8	5.07	–	–
COC(=O)C1=C(O)c2ccccc2S(=O)(=O)N1Cc1ccccc1	32.8	0.29	9.51	–	–
COc1ccc(/C=N/NC(=O)C2=C(O)c3ccccc3S(=O)(=O)N2C)cc1	0.82	23.1	18.9	–	–
NNC(=O)C1=C(O)c2ccccc2S(=O)(=O)N1Cc1ccccc1	> 9.43	10.6	≥ 100	–	–
Cc1ccc(/C=N/NC(=O)C2=C(O)c3ccccc3S(=O)(=O)N2C)cc1	0.2	24.1	4.85	–	–
CCOc1ccc(/C=N/NC(=O)C2=C(O)c3ccccc3S(=O)(=O)N2C)cc1	0.42	0.76	0.32	–	–
O=C(N/N=C/c1cccc(Cl)c1)C1=C(O)c2ccccc2S(=O)(=O)N1	0.01	39.3	0.35	–	–
CCOc1ccc(/C=N/NC(=O)C2=C(O)c3ccccc3S(=O)(=O)N2)cc1	1.81	9.31	16.9	–	–
CN1C(C(=O)N/N=C/c2cccc(Cl)c2)=C(O)c2ccccc2S1(=O)=O	0.78	38.3	29.8	–	–
CN1C(C(=O)N/N=C/c2ccc(Cl)cc2)=C(O)c2ccccc2S1(=O)=O	0.39	15.5	6.12	–	–
NNC(=O)C1=C(O)c2ccccc2S(=O)(=O)N1	0.36	4.33	1.58	–	–
Cc1ccc(/C=N/NC(=O)C2=C(O)c3ccccc3S(=O)(=O)N2Cc2ccccc2)cc1	> 1.12	89.1	≥ 100	–	–
C/C(=N\NC(=O)C1=C(O)c2ccccc2S(=O)(=O)N1C)c1ccc(F)cc1	0.43	25.1	10.8	–	–

SMILES	Ratio IC50 (Rattus norvegicus)	IC50 [1] [µM]	IC50 [2] [µM]	inhibition (INH) [3]	inhibition (INH) [4]
C/C(=N\NC(=O)C1=C(O)c2ccccc2S(=O)(=O)N1C)c1ccccc1	0.93	7.14	6.67	–	–
C/C(=N\NC(=O)C1=C(O)c2ccccc2S(=O)(=O)N1)c1ccc(F)cc1	1.32	40.3	53.4	–	–
COC(=O)C1=C(O)c2ccccc2S(=O)(=O)N1	14.1	0.21	2.97	Active	–
O=C(N/N=C/c1ccccc1O)C1=C(O)c2ccccc2S(=O)(=O)N1	0.53	9.47	5.07	–	–
CN1C(C(=O)N/N=C/c2ccccc2O)=C(O)c2ccccc2S1(=O)=O	3.34	3.41	11.4	–	–
C/C(=N\NC(=O)C1=C(O)c2ccccc2S(=O)(=O)N1)c1ccccc1	0.03	3.33	0.11	–	Active
O=C(N/N=C/c1ccccc1)C1=C(O)c2ccccc2S(=O)(=O)N1	0.21	8.86	1.91	–	–
O=C(N/N=C/c1cccc(Cl)c1)C1=C(O)c2ccccc2S(=O)(=O)N1Cc1ccccc1	0.02	36.4	0.96	–	–
CC(C)c1ccc(/C=N/NC(=O)C2=C(O)c3ccccc3S(=O)(=O)N2)cc1	> 2.62	38.1	≥ 100	–	–
O=C(NN=C1CCCC1)C1=C(O)c2ccccc2S(=O)(=O)N1Cc1ccccc1	> 101	0.99	≥ 100	–	–
O=C(N/N=C/c1ccccc1O)C1=C(O)c2ccccc2S(=O)(=O)N1Cc1ccccc1	4.41	4.24	18.7	–	–
C/C(=N\NC(=O)C1=C(O)c2ccccc2S(=O)(=O)N1C)c1ccc(Cl)cc1	14.7	0.76	11.2	–	–
CN1C(C(=O)NN=C2CCCC2)=C(O)c2ccccc2S1(=O)=O	0.04	8.61	0.38	–	–
Cc1ccc(/C=N/NC(=O)C2=C(O)c3ccccc3S(=O)(=O)N2)cc1	11.7	0.64	7.48	–	–
O=C(NN=C1CCCC1)C1=C(O)c2ccccc2S(=O)(=O)N1	> 109	0.92	≥ 100	–	–
C/C(=N\NC(=O)C1=C(O)c2ccccc2S(=O)(=O)N1Cc1ccccc1)c1ccccc1	0.54	2.26	1.22	–	–
O=C(N/N=C/c1ccc(Cl)cc1)C1=C(O)c2ccccc2S(=O)(=O)N1Cc1ccccc1	> 48.1	2.08	≥ 100	–	–
CN1C(C(=O)NN)=C(O)c2ccccc2S1(=O)=O	0.08	1.5	0.12	–	–
COc1ccc(/C=N/NC(=O)C2=C(O)c3ccccc3S(=O)(=O)N2Cc2ccccc2)cc1	0.83	0.29	0.24	–	–
O=C(N/N=C/c1ccc(Cl)cc1)C1=C(O)c2ccccc2S(=O)(=O)N1	0.57	0.31	0.177	–	–
C/C(=N\NC(=O)C1=C(O)c2ccccc2S(=O)(=O)N1Cc1ccccc1)c1ccc(F)cc1	> 16.5	6.04	≥ 100	–	–
